# Literature values in publication PMC8762078, “An ALS-associated variant of the autophagy receptor SQSTM1/p62 reprograms binding selectivity toward the autophagy-related hATG8 proteins” (The Journal of Biological Chemistry, 2021).
# “Also recorded” adds a separate entry of the source.
# Assays:
# GABARAPL2 = GABARAPL2 (Homo sapiens, UniProt P60520); conditions: ITC, compared with p62 WT-AIM
# Source text: A comparison may be drawn between the GABARAPL2/p62 AIM model produced here and the GABARAPL2/UBA5 AIM structure, the only published structure of an AIM-bound GABARAPL2 ([38]). Both involve the formation of an intermolecular β-sheet between the AIM and the β2 strand of GABARAPL2; however, the UBA5 AIM is atypical, and this produces a noncanonical interaction. The UBA5 AIM sequence ([…]) leads to the formation of a binding pocket not observed in the GABARAPL2/p62 AIM model proposed here or in any other hATG8/AIM interaction, due to the spacing of the key residues. The RMSD between these two ...
# motor neurone-like cells = system: motor neurone-like cells
# Source text: Autophagy is a central pathway for the removal of aggregated or damaged proteins and organelles and is critical to cellular homeostasis. Deregulation of autophagy is recognized as a pathogenic mechanism contributing to a range of neurodegenerative disorders, including amyotrophic lateral sclerosis (ALS) and frontotemporal lobar degeneration (FTLD) ([1], [2], [3], [4]). These conditions form a disease spectrum (ALS-FTLD) defined primarily by ubiquitinated inclusions of TAR DNA-binding protein-43 kDa in neurones ([5]). The link between ALS-FTLD and autophagy is reinforced by the identification o ... || A clear effect of the ALS-associated L341V mutation of p62/hATG8 interactions has been shown through these in vitro studies, though the impact remains relatively modest with individual interaction affinity alterations of up to approximately twofold. However, the interactions are best contextualized around the tendency for p62 to assemble into nanoscale filaments, which have been amenable to cryo-EM structural characterization (Fig. 6A) ([17], [52]). The N-terminal PB1 domain of p62 assembles into a helical protein scaffold with the flexible C-terminal chain, which carries the AIM and UBA domai ...
# Chain of GABARAPL2 (P60520 whole entry): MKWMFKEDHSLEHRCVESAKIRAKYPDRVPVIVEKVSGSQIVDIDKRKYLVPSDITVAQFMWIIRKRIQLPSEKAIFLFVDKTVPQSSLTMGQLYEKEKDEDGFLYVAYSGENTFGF
Substance,thermodynamic profile of GABARAPL2/UBA5 interaction (GABARAPL2),p62 recruitment into autophagic vesicles (motor neurone-like cells)
WGIELV [UBA5 AIM],more enthalpically driven than the interaction with p62 reported here,–
p62 L341V: ALS-associated L341V variant of the SQSTM1/p62 autophagy receptor,–,defect in p62 protein recruitment into autophagic vesicles; also recorded: reduction in p62 recruitment to acidic autophagic vesicles
